From US12448400B2, “KRAS G12D modulating compounds” (priority 2023, dated 2025)

How the values were obtained:
[1] = molecular target: GDP-loaded KRAS G12D (Homo sapiens, UniProt P01116, G12D); assay: KRAS G12D (GDP) biochemical assay, TR-FRET probe displacement; type: binding; settings: 0.5 nM enzyme, 30 min pre-incubation, 2 h incubation, TR-FRET ratio; read-out: G12D IC50
Experimental: Example A. KRAS G12D (GDP) Biochemical Assay
Compounds were tested for binding to GDP-loaded KRAS G12D in a 384-well assay format using a TR-FRET probe displacement assay in buffer consisting of 50 mM Hepes (pH 7.4), 150 mM NaCl, 5 mM MgCl2 and 0.005% Tween-20. […] Compounds were serially diluted (1:3) in DMSO. The LabCyte ECHO Acoustic dispenser system was used to pre-spot the assay plates (384-well Non-Binding Surface plates, Corning, Catalog #3824) with 50 nL of compound. The compounds were pre-incubated with 5 μL of 2× final enzyme concentration for 30 minutes before adding 5 μL of 2× final concentration of Eu-streptavidin and TR-FRET probe (10 μL final reaction volume). The plates were incubated at room temperature for 2 hours before measuring TR-FRET ratio on the Envision plate reader. IC50 values were defined as the compound concentration that causes a 50% decrease in TR-FRET ratio and were calculated using a sigmoidal dose-response model to generate curve fits.

[2] = Mouse oral cassette pharmacokinetics; type: in vivo, male CD-1 mice; settings: male, CD-1, mouse, in vivo, po, 30 mg/kg
Experimental: Mouse Oral Cassette Pharmacokinetics
Test compounds (1-3 compounds per cassette) were formulated in solution formulations (10 w/v % Captisol in 50 mM Citrate buffer) and administered orally at 30 mg-eq./kg each compound to a group of four male CD-1 mice. The test articles were administrated by oral gavage at a dose volume of 10 mL-eq/kg.
Blood samples were collected at 0.5, 1, 3, 6, 8, and 24 hours post dose into K2EDTA tubes and stored on wet ice until processed. Whole blood was processed to plasma by centrifugation (3500 rpm for 10 minutes at 5° C.) within 30 minutes of collection. Plasma samples were placed in Micronic 96 well tubes and stored at −80° C. until transferred. Plasma concentration of the test compounds was determined by LC-MS/MS. Pharmacokinetic parameters were estimated using non-compartment model analysis. The maximum observed concentration (Cmax) and area under the curve from time of dosing to last measured concentration (AUClast) were calculated and reported.

[3] = system: GP2D (KRAS G12D) cells; assay: 2D cell viability assay (CellTiter-Glo); type: cell-based; settings: 96 h; GP2D cells, 4 days, CellTiter-Glo luminescence; read-out: G12D 2D EC50
How it was run: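 Viability was read by CellTiter-Glo after 4 days at 37 °C of 2D culture of KRAS G12D GP2D cells (1000/well, RPMI, 10% FBS) on pre-spotted threefold compound dilutions. EC50 was fitted with a sigmoidal dose-response model as the point of half-maximal luminescence loss.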

Chain of GDP-loaded KRAS G12D (P01116 1-188 isoform P01116-2 G12D): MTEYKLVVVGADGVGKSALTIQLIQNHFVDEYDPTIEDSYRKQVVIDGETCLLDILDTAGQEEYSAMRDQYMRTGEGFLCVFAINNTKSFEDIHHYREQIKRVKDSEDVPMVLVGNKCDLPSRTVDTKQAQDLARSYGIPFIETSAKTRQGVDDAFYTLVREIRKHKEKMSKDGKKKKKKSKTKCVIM

Row | Structure (SMILES) | IC50 [1] | Mouse Parent AUC [2] | EC50 [3]
1 | C#Cc1c(F)ccc2cc(O)cc(-c3nc4c5c(nc(OC[C@@]67CCCN6C[C@H](F)C7)nc5c3F)N3C[C@H]5CC[C@@H]([C@H]3CCC4)N5Cc3oc(=O)oc3C(C)(C)C)c12 [Example 9, 4-(tert-butyl)-5-(((6aR,7S,10R)-2-(8-ethynyl-7-fluoro-3-hydroxynaphthalen-1-yl)-1-fluoro-13-(((2R,7aS)-2-fluorotetrahydro-1H-pyrrolizin-7a(5H)-yl)methoxy)-5,6,6a,7,8,9,10,11-octahydro-4H-3,11a,12,14,15-pentaaza-7,10-methanocyclohepta[4,5]cycloocta[1,2,3-de]naphthalen-15-yl)methyl)-1,3-dioxol-2-one] | 12000 pM | 0.16 µM·h | 1900 pM
2 | C#Cc1c(F)ccc2cc(O)cc(-c3nc4c5c(nc(OC[C@@]67CCCN6C[C@H](F)C7)nc5c3F)N3C[C@H]5CC[C@@H]([C@H]3CCC4)N5Cc3oc(=O)oc3CCCCCCCC)c12 [Example 10, 4-(((6aR,7S,10R)-2-(8-ethynyl-7-fluoro-3-hydroxynaphthalen-1-yl)-1-fluoro-13-(((2R,7aS)-2-fluorotetrahydro-1H-pyrrolizin-7a(5H)-yl)methoxy)-5,6,6a,7,8,9,10,11-octahydro-4H-3,11a,12,14,15-pentaaza-7,10-methanocyclohepta[4,5]cycloocta[1,2,3-de]naphthalen-15-yl)methyl)-5-octyl-1,3-dioxol-2-one] | 7800 pM | 0.44 µM·h | 160 pM
3 | C#Cc1c(F)ccc2cc(O)cc(-c3nc4c5c(nc(OC[C@@]67CCCN6C[C@H](F)C7)nc5c3F)N3C[C@H]5CC[C@@H]([C@H]3CC[C@H]4C)N5Cc3oc(=O)oc3C)c12 [Example 11, 4-(((4R,6aR,7S,10R)-2-(8-ethynyl-7-fluoro-3-hydroxynaphthalen-1-yl)-1-fluoro-13-(((2R,7aS)-2-fluorotetrahydro-1H-pyrrolizin-7a(5H)-yl)methoxy)-4-methyl-5,6,6a,7,8,9,10,11-octahydro-4H-3,11a,12,14,15-pentaaza-7,10-methanocyclohepta[4,5]cycloocta[1,2,3-de]naphthalen-15-yl)methyl)-5-methyl-1,3-dioxol-2-one] | 4400 pM | 0.96 µM·h | 120 pM
4 | C#Cc1c(F)ccc2cc(O)cc(-c3nc4c5c(nc(OC[C@@]67CCCN6C[C@H](F)C7)nc5c3F)N3C[C@H]5CC[C@H](N5)[C@H]3CC[C@H]4C)c12 [Example 11-P, 5-ethynyl-6-fluoro-4-((4R,6aR,7S,10R)-1-fluoro-13-(((2R,7aS)-2-fluorotetrahydro-1H-pyrrolizin-7a(5H)-yl)methoxy)-4-methyl-5,6,6a,7,8,9,10,11-octahydro-4H-3,11a,12,14,15-pentaaza-7,10-methanocyclohepta[4,5]cycloocta[1,2,3-de]naphthalen-2-yl)naphthalen-2-ol] | 90 pM | 0.14 µM·h | 90 pM
5 | C#Cc1c(F)ccc2cc(O)cc(-c3nc4c5c(nc(OC[C@@]67CCCN6C[C@H](F)C7)nc5c3F)N3C[C@H]5CC[C@@H]([C@H]3CC[C@H]4C)N5Cc3oc(=O)oc3C(C)(C)C)c12 [Example 12, 4-(tert-butyl)-5-(((4R,6aR,7S,10R)-2-(8-ethynyl-7-fluoro-3-hydroxynaphthalen-1-yl)-1-fluoro-13-(((2R,7aS)-2-fluorotetrahydro-1H-pyrrolizin-7a(5H)-yl)methoxy)-4-methyl-5,6,6a,7,8,9,10,11-octahydro-4H-3,11a,12,14,15-pentaaza-7,10-methanocyclohepta[4,5]cycloocta[1,2,3-de]naphthalen-15-yl)methyl)-1,3-dioxol-2-one] | 73000 pM | 0.2 µM·h | 280 pM
6 | C#Cc1c(F)ccc2cc(O)cc(-c3nc4c5c(nc(OC[C@@]67CCCN6C[C@H](F)C7)nc5c3F)N3C[C@H]5CC[C@@H]([C@H]3CC[C@H]4C)N5Cc3oc(=O)oc3CCCCCCCC)c12 [Example 13, 4-(((4R,6aR,7S,10R)-2-(8-ethynyl-7-fluoro-3-hydroxynaphthalen-1-yl)-1-fluoro-13-(((2R,7aS)-2-fluorotetrahydro-1H-pyrrolizin-7a(5H)-yl)methoxy)-4-methyl-5,6,6a,7,8,9,10,11-octahydro-4H-3,11a,12,14,15-pentaaza-7,10-methanocyclohepta[4,5]cycloocta[1,2,3-de]naphthalen-15-yl)methyl)-5-octyl-1,3-dioxol-2-one] | 24000 pM | 0.42 µM·h | 190 pM
7 | C#Cc1c(F)ccc2cc(O)cc(-c3nc4c5c(nc(OC[C@@]67CCCN6C[C@H](F)C7)nc5c3F)N3C[C@H]5CC[C@@H]([C@H]3CCC4)N5Cc3oc(=O)oc3CCCCCC)c12 [Example 14, 4-(((6aR,7S,10R)-2-(8-ethynyl-7-fluoro-3-hydroxynaphthalen-1-yl)-1-fluoro-13-(((2R,7aS)-2-fluorotetrahydro-1H-pyrrolizin-7a(5H)-yl)methoxy)-5,6,6a,7,8,9,10,11-octahydro-4H-3,11a,12,14,15-pentaaza-7,10-methanocyclohepta[4,5]cycloocta[1,2,3-de]naphthalen-15-yl)methyl)-5-hexyl-1,3-dioxol-2-one] | 7300 pM | 0.94 µM·h | 140 pM
8 | C#Cc1c(F)ccc2cc(O)cc(-c3nc4c5c(nc(OC[C@@]67CCCN6C[C@H](F)C7)nc5c3F)N3C[C@H]5CC[C@@H]([C@H]3CCC4)N5Cc3oc(=O)oc3C3CCCCC3)c12 [Example 15, 4-cyclohexyl-5-(((6aR,7S,10R)-2-(8-ethynyl-7-fluoro-3-hydroxynaphthalen-1-yl)-1-fluoro-13-(((2R,7aS)-2-fluorotetrahydro-1H-pyrrolizin-7a(5H)-yl)methoxy)-5,6,6a,7,8,9,10,11-octahydro-4H-3,11a,12,14,15-pentaaza-7,10-methanocyclohepta[4,5]cycloocta[1,2,3-de]naphthalen-15-yl)methyl)-1,3-dioxol-2-one] | 7900 pM | 0.25 µM·h | 200 pM
9 | C#Cc1c(F)ccc2cc(O)cc(-c3nc4c5c(nc(OC[C@@]67CCCN6C[C@H](F)C7)nc5c3F)N3C[C@H]5CC[C@@H]([C@H]3CC[C@H]4C)N5Cc3oc(=O)oc3CCCCCC)c12 [Example 16, 4-(((4R,6aR,7S,10R)-2-(8-ethynyl-7-fluoro-3-hydroxynaphthalen-1-yl)-1-fluoro-13-(((2R,7aS)-2-fluorotetrahydro-1H-pyrrolizin-7a(5H)-yl)methoxy)-4-methyl-5,6,6a,7,8,9,10,11-octahydro-4H-3,11a,12,14,15-pentaaza-7,10-methanocyclohepta[4,5]cycloocta[1,2,3-de]naphthalen-15-yl)methyl)-5-hexyl-1,3-dioxol-2-one] | 40000 pM | 0.95 µM·h | 160 pM
10 | C#Cc1c(F)ccc2cc(O)cc(-c3nc4c5c(nc(OC[C@@]67CCCN6C[C@H](F)C7)nc5c3F)N3C[C@H]5CC[C@@H]([C@H]3CC[C@H]4C)N5Cc3oc(=O)oc3C3CCCCC3)c12 [Example 17, 4-cyclohexyl-5-(((4R,6aR,7S,10R)-2-(8-ethynyl-7-fluoro-3-hydroxynaphthalen-1-yl)-1-fluoro-13-(((2R,7aS)-2-fluorotetrahydro-1H-pyrrolizin-7a(5H)-yl)methoxy)-4-methyl-5,6,6a,7,8,9,10,11-octahydro-4H-3,11a,12,14,15-pentaaza-7,10-methanocyclohepta[4,5]cycloocta[1,2,3-de]naphthalen-15-yl)methyl)-1,3-dioxol-2-one] | 48000 pM | 0.161 µM·h | 200 pM
11 | C#Cc1c(F)ccc2cc(N)cc(-c3nc4c5c(nc(OC[C@@]67CCCN6C[C@H](F)C7)nc5c3F)N3C[C@H]5CC[C@H](N5)[C@H]3CCC4)c12 [Example 69-P, 5-ethynyl-6-fluoro-4-((6aR,7S,10R)-1-fluoro-13-(((2R,7aS)-2-fluorotetrahydro-1H-pyrrolizin-7a(5H)-yl)methoxy)-5,6,6a,7,8,9,10,11-octahydro-4H-3,11a,12,14,15-pentaaza-7,10-methanocyclohepta[4,5]cycloocta[1,2,3-de]naphthalen-2-yl)naphthalen-2-amine] | 70 pM | 0.5 µM·h | 500 pM
